Experimental data taken from patent US20240316196A1, “METHODS AND COMPOSITIONS FOR DIFFERENTIATION OF PLURIPOTENT STEM CELLS AND DERIVED NATURAL KILLER CELLS” (NUWACELL BIOTECHNOLOGIES CO., LTD., priority 2022, published 2024).

What was measured:
Format in all cases: cell-based
K562 cells = test: Cytotoxicity of Stage 3 iNK cells towards K562 cells (CFSE/7AAD assay); details: added to Stage 3 medium (IL-10 20 ng/mL, IL-18 50 ng/mL); 4 hr co-culture, E:T 3:1 (FIG. 13A)
Experimental: hiPSCs were prepared as described in CN108373998B. On Day −1, Embryoid body (EB) formation (Stage 1-1) was carried out by placing individualized hiPSCs in E8 medium containing 10 μM Blebbistatin in T25 flasks on a bellydancer and culture overnight. On Day 0, lateral mesoderm differentiation (Stage 1-2) was initiated by changing the medium to a Stage 1-2 differentiation medium comprising IF-4 basal medium and supplemented with BMP4 (25 ng/mL), VEGF (15 ng/mL), bFGF (0.5 ng/mL) and CHIR99021 (4 μM) for 2 days. On Day 2, lateral mesoderm differentiation (Stage 1-3) continued for 1 day in a Stage 1-3 differentiation medium comprising IF-4 basal medium and supplemented with BMP4 (25 ng/mL), VEGF (50 ng/mL) and bFGF (0.5 ng/mL) and CHIR99021 (1 μM). On Day 3, HE specification (Stage 1-4) was initiated by adding a Stage 1-4 differentiation medium comprising IF-4 basal medium and supplemented with VEGF (15 ng/mL), bFGF (5 ng/mL), XAV939 (5 μM) for 1 day. […] On Day 11 of co-culture, iNK cells were collected and stained with CD56-PE antibody (BD, #555516), the percentage of CD56+ cells was analyzed by flow cytometry. The cytotoxicity of Stage 3 iNK cells towards K562 cells was detected by CFSE/7AAD assay after 4 hr co-culture at E:T of 3:1.

PBNK cells = test: Expansion of PBNK cells from PBMCs (NK cell expansion fold; CD56+CD3− % by flow cytometry); details: heparin sodium 0-50 μg/mL in NKSFM
Experimental: The effect of the concentration of nicotinamide (NAM) in an exemplary basal medium on NK cell expansion was evaluated. The above basal medium comprised the following components: IMDM (Sigma): RPMI1640 (Gibco) (50%: 50%); about 1.3 ng/mL of Cupric sulfate, about 3 μM of Ferric sulfate, about 0.432 μg/mL of Zinc sulfate, about 1-50 ng/mL of Na Selenite, about 110 μg/mL of Sodium pyruvate, 0.1-20 μg/mL of Insulin, 1-200 μg/mL of Transferrin, about 1%(v/v) of GlutaMAX-1, 0.1-20 mg/mL of HSA, 1-400 μM of MTG, about 80 μg/mL of Ascorbic acid and indicated concentration of NAM. Peripheral blood mononuclear cells (PBMCs) were isolated by density gradient centrifugation using Ficoll-Paque. On Day 0, PBMCs were plated at 1×10^6 cells/mL in a 48-well-plate in the basal medium with NAM (either 0, 1, 2, 2.5, 3, 3.5, 4, or 5 mM) and stimulated with the following reagents for 3 days: immobilized CD16 antibody (Biolegend, 302014) (135 ng/cm^2), IL-2 (700 IU/mL), IL-15 (10 ng/mL) and OK432 (0.01 KE/mL). On day 3, cells were re-suspended in the above basal medium supplemented with IL-2 (700 IU/mL) and IL-15 (10 ng/mL). Fresh medium was added every other day to maintain cell density below 2×10^6 cells/mL. Cells were collect on Day 14 and stained with CD56-PE and CD3-PerCP-Cy5.5 antibodies, the percentage of CD56^+CD3^− NK cells was analyzed by flow cytometry.
(§1) The effect of heparin sodium concentration in an exemplary NKSFM on NK cell expansion was also evaluated. NKSFM comprised the following components: IMDM (Sigma): DMEM/F12 (Gibco) (50%: 50%); about 20 μM of Ethanolamine, about 1-50 ng/mL of Na Selenite, about 110 μg/mL of Sodium pyruvate, 0.1-20 μg/mL of Insulin, 1-200 μg/mL of Transferrin, about 1%(v/v) of GlutaMAX-1, 0.1-20 mg/mL of Human serum albumin, 1-400 μM of MTG, about 80 μg/mL of Ascorbic acid, about 1-5 mM of NAM, 4%(v/v) of PLT, and indicated concentration of heparin sodium. PBMCs were isolated by density gradient centrifugation using Ficoll-Paque. On Day 0, PBMCs were plated at 1×10^6 cells/mL in a 48-well-plate in NKSFM with heparin sodium (0, 0.5, 1, 3, 10, 30, or 50 μg/mL) and stimulated with the following reagents for 3 days: immobilized CD16 antibody (Biolegend, 302014) (135 ng/cm^2), OK432 (0.01 KE/mL), NeoIL-2 (50 ng/mL), IL-12 (10 ng/mL), IL-18 (50 ng/mL). […] Cells were collect on Day 13 and stained with CD56-PE and CD3-PerCP-Cy5.5 antibodies, the percentage of CD56^+CD3^− NK cells was analyzed by flow cytometry. The specific lysis of K562 tumor cells by NK cells were assessed by CFSE/7-AAD cytotoxicity assay. […] After incubation for 4 hours, cells were stained with 7-AAD (Live/dead staining) and analyzed with flow cytometry.
The effect of PLT percentage (v/v) in an exemplary NKSFM on NK cell expansion was evaluated. […]

K562 tumor cells = test: Specific lysis of K562 tumor cells by expanded NK cells (CFSE/7-AAD cytotoxicity assay); details: heparin sodium 0-50 μg/mL in NKSFM; E:T 3:1, 4 hours (FIG. 3C)
Experimental: as §1, with “Ficoll-Paque.” for “Ficoll-Paque. On Day 0, PBMCs were plated at 1×10^6 cells/mL in a 48-well-plate in NKSFM with heparin sodium (0, 0.5, 1, 3, 10, 30, or 50 μg/mL) and stimulated with the following reagents for 3 days: immobilized CD16 antibody (Biolegend, 302014) (135 ng/cm^2), OK432 (0.01 KE/mL), NeoIL-2 (50 ng/mL), IL-12 (10 ng/mL), IL-18 (50 ng/mL).”
The effect of PLT percentage (v/v) in an exemplary NKSFM on NK cell expansion was evaluated. […] Cells were collect on Day 14 and stained with CD56-PE and CD3-PerCP-Cy5.5 antibodies, the percentage of CD56^+CD3^− NK cells was analyzed by flow cytometry. The specific lysis of K562 tumor cells by NK cells were assessed by CFSE/7-AAD cytotoxicity assay. […]

IL-10: interleukin added to Stage 3 expansion and maturation medium
cytotoxicity of iNK cells towards K562 cells (K562 cells): significantly improve

heparin sodium
NK cell expansion fold, effect of concentration (PBNK cells; Day 13 (FIG. 3A)): significantly influences
percentage of CD56^+CD3^− NK cells, effect of concentration (PBNK cells; Day 13 (FIG. 3B)): minimal effect
specific lysis of K562 tumor cells, effect of concentration (K562 tumor cells): minimal effect
